“Also recorded” adds a separate entry of the source. Read-outs that look alike come from different tables or passages of the source.
Key:
P450 2A6 [1] = target: T1, P450 2A6 (Homo sapiens, UniProt P11509); assay: Oxidation by P450 2A6; assay type: in vitro ADME; conditions: 50 µM substrate, reconstituted system, LC-MS
T1 sequence (P11509 1-494): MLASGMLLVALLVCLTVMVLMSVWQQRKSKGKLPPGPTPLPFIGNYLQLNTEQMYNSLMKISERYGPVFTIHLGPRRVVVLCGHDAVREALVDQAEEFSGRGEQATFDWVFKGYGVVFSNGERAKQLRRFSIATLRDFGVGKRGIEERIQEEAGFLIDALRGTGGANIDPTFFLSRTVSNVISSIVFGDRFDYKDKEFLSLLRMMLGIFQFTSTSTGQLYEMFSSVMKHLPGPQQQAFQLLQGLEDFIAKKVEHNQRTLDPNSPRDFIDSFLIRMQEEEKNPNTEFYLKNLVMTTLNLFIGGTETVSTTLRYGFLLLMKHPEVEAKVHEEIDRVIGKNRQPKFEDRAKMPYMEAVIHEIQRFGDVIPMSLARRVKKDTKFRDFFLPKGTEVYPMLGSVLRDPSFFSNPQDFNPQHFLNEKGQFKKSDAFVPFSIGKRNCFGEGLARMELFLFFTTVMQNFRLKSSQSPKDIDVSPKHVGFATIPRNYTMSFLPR

P450 2A13 [2] = target: T2, P450 2A13 (Homo sapiens, UniProt Q16696); assay: Oxidation by P450 2A13; assay type: in vitro ADME; conditions: 50 µM substrate, reconstituted system, LC-MS
T2 sequence (Q16696 1-494): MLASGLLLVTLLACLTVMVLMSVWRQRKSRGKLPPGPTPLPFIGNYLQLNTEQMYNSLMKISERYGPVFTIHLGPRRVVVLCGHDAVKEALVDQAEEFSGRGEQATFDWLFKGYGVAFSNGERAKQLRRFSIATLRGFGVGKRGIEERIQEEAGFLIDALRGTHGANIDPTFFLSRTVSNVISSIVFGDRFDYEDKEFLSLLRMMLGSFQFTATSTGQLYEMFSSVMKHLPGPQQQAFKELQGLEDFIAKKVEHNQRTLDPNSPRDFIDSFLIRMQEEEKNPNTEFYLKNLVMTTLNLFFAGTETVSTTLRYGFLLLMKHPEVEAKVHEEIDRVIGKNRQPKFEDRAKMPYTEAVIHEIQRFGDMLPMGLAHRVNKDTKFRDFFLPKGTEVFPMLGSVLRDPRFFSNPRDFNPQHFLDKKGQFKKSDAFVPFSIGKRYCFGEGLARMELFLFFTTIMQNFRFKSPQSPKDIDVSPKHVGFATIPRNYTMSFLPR

P450 2A6 [3] = target: T1, P450 2A6; assay: Spectral binding titration with P450 2A6
P450 2A13 [4] = target: T2, P450 2A13; assay: Spectral binding titration with P450 2A13
P450 3A4 = P450 3A4 (Homo sapiens, UniProt P08684); assay: Spectral binding titration with P450 3A4
P450 1B1 = target: T3, P450 1B1 (Homo sapiens, UniProt Q16678); assay: Spectral binding titration with P450 1B1
T3 sequence (Q16678 1-543): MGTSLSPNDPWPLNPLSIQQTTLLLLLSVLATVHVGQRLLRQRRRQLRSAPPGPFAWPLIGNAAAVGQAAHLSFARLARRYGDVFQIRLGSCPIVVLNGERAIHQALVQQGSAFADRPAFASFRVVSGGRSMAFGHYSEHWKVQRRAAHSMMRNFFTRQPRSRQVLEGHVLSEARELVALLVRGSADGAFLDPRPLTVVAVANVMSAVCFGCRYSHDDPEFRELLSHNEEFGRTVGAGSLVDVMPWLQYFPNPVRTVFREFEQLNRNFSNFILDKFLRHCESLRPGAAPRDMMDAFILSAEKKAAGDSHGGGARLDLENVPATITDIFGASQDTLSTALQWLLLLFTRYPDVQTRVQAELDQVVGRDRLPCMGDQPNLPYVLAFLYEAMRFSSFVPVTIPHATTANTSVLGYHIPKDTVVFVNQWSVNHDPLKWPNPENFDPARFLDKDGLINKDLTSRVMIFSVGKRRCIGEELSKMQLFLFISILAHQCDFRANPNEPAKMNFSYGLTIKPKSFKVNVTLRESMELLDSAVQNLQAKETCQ

P450 1A2 = target: T4, P450 1A2 (Homo sapiens, UniProt P05177); assay: Spectral binding titration with P450 1A2
T4 sequence (P05177 1-516): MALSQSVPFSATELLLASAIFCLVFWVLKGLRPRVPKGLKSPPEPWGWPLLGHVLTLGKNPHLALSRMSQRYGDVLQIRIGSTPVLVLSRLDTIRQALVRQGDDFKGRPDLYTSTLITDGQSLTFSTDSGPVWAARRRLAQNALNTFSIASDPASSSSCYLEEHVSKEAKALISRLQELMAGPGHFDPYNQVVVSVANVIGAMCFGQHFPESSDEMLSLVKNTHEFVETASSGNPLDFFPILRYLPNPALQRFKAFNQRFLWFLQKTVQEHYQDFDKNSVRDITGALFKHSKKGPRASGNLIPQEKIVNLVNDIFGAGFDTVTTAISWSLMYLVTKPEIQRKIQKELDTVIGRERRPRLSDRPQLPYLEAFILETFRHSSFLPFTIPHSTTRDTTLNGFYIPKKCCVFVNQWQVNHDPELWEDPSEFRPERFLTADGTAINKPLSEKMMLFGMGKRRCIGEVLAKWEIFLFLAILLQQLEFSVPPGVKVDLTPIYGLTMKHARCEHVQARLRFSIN

P450 2C9 = P450 2C9 (Homo sapiens, UniProt P11712); assay: Spectral binding titration with P450 2C9
S. typhimurium NM2009 = assay: Genotoxicity assay, induction of umu gene expression; assay type: cell-based, Salmonella typhimurium; conditions: for genotoxic activity (induction of umu gene expression): 0-160 µM, without P450; for cytotoxic activity: at concentrations of 80 and 160 µM, tester strain NM2009
P450 2A6 [5] = target: T1, P450 2A6; conditions: cited from earlier work
P450 2A13 [6] = target: T2, P450 2A13; conditions: cited from earlier work
P450 2A6 [7] = conditions: cited from earlier work
P450 2A13 [8] = conditions: cited from earlier work
[9] = system: Salmonella typhimurium TA1537 and TA1538; conditions: cited from earlier work
HepG2 = conditions: cited from earlier work
S. typhimurium TA120 = conditions: photomutagenesis assay; cited from earlier work
[10] = non-classifiable as to carcinogenicity to humans; cited from earlier work
S. typhimurium TM677 = conditions: cited from earlier work

Chain of P450 3A4 (P08684 whole entry): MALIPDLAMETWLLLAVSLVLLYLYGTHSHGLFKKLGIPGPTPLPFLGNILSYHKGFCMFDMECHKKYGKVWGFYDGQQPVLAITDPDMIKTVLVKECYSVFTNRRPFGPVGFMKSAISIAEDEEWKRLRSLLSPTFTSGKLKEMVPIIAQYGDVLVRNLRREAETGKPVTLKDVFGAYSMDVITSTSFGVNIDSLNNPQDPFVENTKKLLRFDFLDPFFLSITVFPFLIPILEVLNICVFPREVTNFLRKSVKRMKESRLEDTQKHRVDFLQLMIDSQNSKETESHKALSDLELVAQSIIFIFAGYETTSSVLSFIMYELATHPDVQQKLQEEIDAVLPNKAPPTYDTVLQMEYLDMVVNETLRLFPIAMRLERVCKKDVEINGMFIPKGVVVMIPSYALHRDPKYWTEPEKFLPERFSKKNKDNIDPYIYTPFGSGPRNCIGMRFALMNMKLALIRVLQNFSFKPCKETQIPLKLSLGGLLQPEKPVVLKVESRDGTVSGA
Chain of P450 2C9 (P11712 whole entry): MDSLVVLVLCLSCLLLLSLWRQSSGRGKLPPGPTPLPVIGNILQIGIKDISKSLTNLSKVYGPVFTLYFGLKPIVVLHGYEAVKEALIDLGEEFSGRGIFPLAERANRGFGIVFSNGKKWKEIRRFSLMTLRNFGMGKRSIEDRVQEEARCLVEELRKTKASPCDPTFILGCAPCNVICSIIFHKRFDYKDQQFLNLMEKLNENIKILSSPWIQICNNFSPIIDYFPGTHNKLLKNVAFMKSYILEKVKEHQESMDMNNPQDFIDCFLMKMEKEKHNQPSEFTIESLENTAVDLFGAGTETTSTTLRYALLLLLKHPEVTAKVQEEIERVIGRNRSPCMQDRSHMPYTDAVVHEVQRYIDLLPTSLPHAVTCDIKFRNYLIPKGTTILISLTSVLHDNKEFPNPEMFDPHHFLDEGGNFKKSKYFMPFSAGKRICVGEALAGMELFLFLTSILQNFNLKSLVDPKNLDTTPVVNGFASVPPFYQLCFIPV

| Structure (SMILES) | binding spectra induced (P450 2A6 [3]; P450 2A6) | ΔAmax / Ks (P450 2A6 [3]; P450 2A6) | ΔAmax (P450 2A6 [3]; P450 2A6, ± SE) | Kd (P450 2A13 [4]) [µM] | binding spectra induced (P450 2A13 [4]; P450 2A13) | ΔAmax / Ks (P450 2A13 [4]; P450 2A13) | ΔAmax (P450 2A13 [4]; P450 2A13, ± SE) | Kd (P450 3A4) [µM] | binding spectra induced (P450 3A4; P450 3A4) | ΔAmax / Ks (P450 3A4; P450 3A4) | ΔAmax (P450 3A4; P450 3A4, ± SE) | spectral changes (P450 1B1) | spectral changes (P450 1A2) | spectral changes (P450 2C9) | genotoxic activity (induction of umu gene expression) (S. typhimurium NM2009) | cytotoxic activity (S. typhimurium NM2009) | genotoxicity after metabolic activation with P450 2A6 and 2A13 (S. typhimurium NM2009) | photomutagenicity (S. typhimurium TA120) | further results |
| --- | --- | --- | --- | --- | --- | --- | --- | --- | --- | --- | --- | --- | --- | --- | --- | --- | --- | --- | --- |
| c1cc2c3c(cccc3c1)C1OC21 (centres unmarked) [1,2-epoxyacenaphthene, 1,2-Epoxyacenaphthene] | Type I | 0.035 | 0.062 ± 0.002 | 0.16 ± 0.03 | Type I | 0.46 | 0.073 ± 0.002 | 6.2 ± 0.87 | Type I | 0.007 | 0.041 ± 0.002 | did not show any spectral changes | did not show any spectral changes | did not show any spectral changes | Neither these four PAHs induced umu gene expression; also recorded: none of these four chemicals showed any genotoxic activity | 10-20% | negative results |  | further oxidation by P450 2A6 (P450 2A6 [1]): further oxidized; further oxidation by P450 2A13 (P450 2A13 [2]): to a small extent; Kd (P450 2A6 [3]; Ks (spectral dissociation constant), P450 2A6, 1 µM P450, pH 7.4, ± SE): 1.78 ± 0.25 µM; Ks with P450 2A13 lower than with P450 2A6 (P450 2A13 [4]; P450 2A13 vs P450 2A6): ~ 10 fold |
| OC1Cc2cccc3cccc1c23 (centres unmarked) [1-acenaphthenol] | very weak or undetectable |  |  | 0.48 ± 0.03 | Type I | 0.13 | 0.061±0.001 | 7.8 ± 2.2 | very weak or undetectable | 0.002 | 0.013 ± 0.001 | did not show any spectral changes | did not show any spectral changes | did not show any spectral changes | Neither these four PAHs induced umu gene expression; also recorded: none of these four chemicals showed any genotoxic activity | 10-20% | negative results |  |  |
| c1cc2c3c(cccc3c1)CC2 [acenaphthene] |  | 0.055 | 0.066±0.002 |  |  | 0.15 | 0.074±0.005 | 19 ± 3.5 |  | 0.002 | 0.040±0.003 |  |  |  | Neither these four PAHs induced umu gene expression | 10-20% | negative results | weakly mutagenic | genotoxic activity (induction of umu gene expression) (S. typhimurium NM2009; listed as Acenaphthene): none of these four chemicals showed any genotoxic activity; binding spectra induced (P450 2A6 [5]; P450 2A6): Type I; binding spectra induced (P450 2A13 [6]; P450 2A13): Type I; inhibition of coumarin 7-hydroxylation activity (P450 2A6 [7]; P450 2A6): inhibit; inhibition of coumarin 7-hydroxylation activity (P450 2A13 [8]; P450 2A13): inhibit; mutagenicity ([9]; TA1537 and TA1538): non-mutagenic; cytotoxicity (HepG2; human liver tumor cell lines and HepG2 in vitro): non-cytotoxic; IARC category [10]: Group 3 |
| C1=Cc2cccc3cccc1c23 [acenaphthylene] |  | 0.017 |  |  |  | 0.081 |  | 13 ± 2.7 |  | 0.002 |  |  |  |  | Neither these four PAHs induced umu gene expression; also recorded: none of these four chemicals showed any genotoxic activity | 10-20% | negative results | weakly mutagenic | ΔAmax (P450 2A6 [3]): 0.076±0.002; ΔAmax (P450 2A13 [4]): 0.050±0.004; ΔAmax (P450 3A4): 0.030±0.002; binding spectra induced (P450 2A6 [5]): Type I; binding spectra induced (P450 2A13 [6]): Type I; inhibition of coumarin 7-hydroxylation activity (P450 2A6 [7]): inhibit; inhibition of coumarin 7-hydroxylation activity (P450 2A13 [8]): inhibit; mutagenicity [9]: non-mutagenic; cytotoxicity (HepG2): non-cytotoxic; mutagenicity (S. typhimurium TM677): mutagenic |
| Oc1ccc2c(cc3ccc4cccc5ccc2c3c45)c1O [benzo[a]pyrene-7,8-diol, reference compound] |  |  |  |  |  |  |  |  |  |  |  |  |  |  |  |  |  |  | umu gene expression after metabolic activation (positive control) (S. typhimurium NM2009; with P450 1B1, results not shown): induced umu gene expression |

— PMC4755721 (Chemical research in toxicology, 2015)
